Here are results for three compounds from patent publication US20250003011A1, “SAMPLE PREPARATION METHODS USING MODIFIED BASES FOR RAPID IDENTIFICATION AND SEQUENCING” (priority 2023, published 2025).

For assay [1], the target named is T1, MANTA polymerase (Geobacillus stearothermophilus, UniProt P52026).
T1 sequence (P52026 289-876 limits assumed): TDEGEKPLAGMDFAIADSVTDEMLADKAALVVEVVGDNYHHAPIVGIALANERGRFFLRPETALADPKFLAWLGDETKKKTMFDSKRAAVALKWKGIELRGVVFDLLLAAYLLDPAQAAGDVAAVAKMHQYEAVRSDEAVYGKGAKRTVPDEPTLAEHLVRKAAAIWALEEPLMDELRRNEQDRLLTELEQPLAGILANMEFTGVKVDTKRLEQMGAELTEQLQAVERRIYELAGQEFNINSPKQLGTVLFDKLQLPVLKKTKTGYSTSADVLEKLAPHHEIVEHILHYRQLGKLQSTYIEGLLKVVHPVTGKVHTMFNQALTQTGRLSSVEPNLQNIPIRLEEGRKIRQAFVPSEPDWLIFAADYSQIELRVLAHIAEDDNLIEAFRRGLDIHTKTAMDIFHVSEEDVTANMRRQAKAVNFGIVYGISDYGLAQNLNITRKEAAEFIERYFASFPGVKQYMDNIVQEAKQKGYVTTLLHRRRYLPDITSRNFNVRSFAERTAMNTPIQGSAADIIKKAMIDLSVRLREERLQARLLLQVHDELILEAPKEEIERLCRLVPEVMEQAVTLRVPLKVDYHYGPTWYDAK
Put plainly: Incorporation of two modified nucleotides in one fill-in reaction, distribution detected by antibodies on hairpins. To be noted: iodo-dUTP 5 μM and pseudo-dUTP 95 μM replacing dTTP; anti-iodouridine and anti-pseudouridine antibodies. Details: Bst DNA Polymerase, Large Fragment (e.g., Manta®); purchased. It is filed as biochemical. The text has this: After synthesis, the hairpin was assembled and assessed with both anti-iodouridine antibody and anti-pseudouridine antibody.
FIG. 4B: For each molecule, we counted the number of positions detected by either the anti-IdU or anti-pseudouridine over the expected total number of positions for this sequence. We then plotted the distribution of each modification for all the functional molecules.
One of the 50 long oligonucleotides described in Example 3 was used as a template to incorporate two different modified nucleotides at the same time. Both iodo-dUTP as well as pseudo-dUTP were included in the nucleotide mix (at 5 μM and 95 μM respectively) during the replication step to completely replace the natural base dTTP. After synthesis of the complementary strand, the hairpin was assembled and assessed with both anti-iodouridine antibody (clone OTI2F8 from Abcam) and anti-pseudouridine antibody (Cat. No. C15200236, Diagenode) (FIG. 4A).
The distribution of each modified base in the hairpin was determined for each modification (FIG. 4B).

Assay [2] concerns the target T1, MANTA polymerase. Briefly: Measurement of the KD of modified uridine triphosphates, single-adenine template, FITC primer, PAGE. The note with it: 65° C., 2 minutes; 100 μM dATP, dCTP, dGTP; no dTTP.
Procedure: The reaction was supplemented with dATP, dCTP and dGTP as well as the uridine triphosphate tested (no dTTP was added to the reaction).
The KD is defined as the concentration of the modified dUTP required to produce 50% of fill in reaction. […] We then produced a second, simpler template comprising only one adenine in the template followed by 15 random bases excluding adenine (PS2972, SEQ ID NO:3). The template was designed such that the 3′ end of the complementary oligonucleotide tagged with FITC (PS1289, SEQ ID NO:4) ends at the base just before the adenine in the 32-base oligonucleotide. After annealing of these two oligonucleotides, there is thus only one A position where modified dUTP could be inserted (see FIG. 2A).
It was expected that if dCTP, dATP and dGTP were present in the reaction mix along with one of the modified uridine triphosphates, if the modified uridine was integrated by the polymerase, 16 bases would be added, thereby yielding a 32 base-long oligonucleotide tagged with FITC. […]
Polymerisation reactions were prepared with the Manta polymerase. […] Fluorescence of the reaction products were then quantified with ImageJ (National Institutes of Health).
For each modified uridine triphosphate, the ratio of fully extended product over the total amount of FITC-labelled oligonucleotide was calculated and plotted on a graph as a function of the concentration. […]
The target of another assay is T2, Manta DNA polymerase (Geobacillus stearothermophilus, UniProt P52026).
T2 construct: Bst DNA Polymerase, Large Fragment (e.g., Manta®); purchased
T2 sequence (P52026 289-876 limits assumed): T1 sequence (P52026 289-876 limits assumed)
Put plainly: Elongation (fill-in) assay on 200-mer template with modified uridine triphosphates. It is filed as biochemical. To be noted: modified nucleotide replaces dTTP at 100%; 65° C., 30 min. As for the experimental part:
(§1) A synthetic template of 200 bases was used to determine the capacity of Deep Vent and Manta DNA polymerase to integrate modified uridine triphosphate. The synthesis was initiated from a 20 bases complementary oligonucleotide and various conditions were tested. In lanes 1 and 6, all triphosphate nucleotide except dTTP were added in the reaction mix according to the manufacturer recommendation (negative control) to determine if the polymerase is stopped at positions where it needs to integrate a thymidine. In lane 2, dTTP was added to the reaction mix as the positive control where full length construct should be obtained. In lanes 3 and 7, 4 and 8 and 5 and 9, IdU, FdU and CldU were added to the reaction mix respectively to replace at 100% the dTTP. […] This is not the case for the Manta DNA polymerase as the only product observed is where the polymerase should have integrated a thymidine.
(§2) In order to identify the proper DNA polymerase that can utilise modified uridine triphosphate, we performed an elongation assay with different DNA polymerases and various combination of nucleotide mixes, using a 22-mer primer (PS2508, SEQ ID NO: 1) annealed to a 200-mer template (PS2509, SEQ ID NO:2). As the template contains a lot of instances of adenines, there are multiple positions where the polymerase must be able to incorporate uridine to be able to produce full length fill in reaction.
(§3) On the other hand, when dTTP or dUTP was replaced with a modified dUTP, a full-length reaction product was detected for both Manta™ and DeepVent DNA polymerases.
(§4) The conditions for the fill in reaction were as follow: dATP, dGTP, dCTP and Iodo dUTP were prepared in a mix at 500 μM each and used at a final concentration of 100 μM final; 1 μl of Manta™ or DeepVent polymerase were used on 10 pmoles of the 200-mer (PS2509) with the 22-mer primer (PS2508) pre-annealed to initiate the fill-in.
(§5) The incubation was done for 30 min at 65° C. for the Manta or 72° C. for the DeepVent, in a MiniAmp thermalCycler (Applied Biosystems) with lid at 105° C. to prevent evaporation.

The target in a further assay is T3, DeepVent DNA polymerase (Pyrococcus sp., UniProt Q51334, DEL493-1029).
T3 construct: purchased
T3 sequence (Q51334 other isoform, or with tags, fused parts or gaps DEL493-1029): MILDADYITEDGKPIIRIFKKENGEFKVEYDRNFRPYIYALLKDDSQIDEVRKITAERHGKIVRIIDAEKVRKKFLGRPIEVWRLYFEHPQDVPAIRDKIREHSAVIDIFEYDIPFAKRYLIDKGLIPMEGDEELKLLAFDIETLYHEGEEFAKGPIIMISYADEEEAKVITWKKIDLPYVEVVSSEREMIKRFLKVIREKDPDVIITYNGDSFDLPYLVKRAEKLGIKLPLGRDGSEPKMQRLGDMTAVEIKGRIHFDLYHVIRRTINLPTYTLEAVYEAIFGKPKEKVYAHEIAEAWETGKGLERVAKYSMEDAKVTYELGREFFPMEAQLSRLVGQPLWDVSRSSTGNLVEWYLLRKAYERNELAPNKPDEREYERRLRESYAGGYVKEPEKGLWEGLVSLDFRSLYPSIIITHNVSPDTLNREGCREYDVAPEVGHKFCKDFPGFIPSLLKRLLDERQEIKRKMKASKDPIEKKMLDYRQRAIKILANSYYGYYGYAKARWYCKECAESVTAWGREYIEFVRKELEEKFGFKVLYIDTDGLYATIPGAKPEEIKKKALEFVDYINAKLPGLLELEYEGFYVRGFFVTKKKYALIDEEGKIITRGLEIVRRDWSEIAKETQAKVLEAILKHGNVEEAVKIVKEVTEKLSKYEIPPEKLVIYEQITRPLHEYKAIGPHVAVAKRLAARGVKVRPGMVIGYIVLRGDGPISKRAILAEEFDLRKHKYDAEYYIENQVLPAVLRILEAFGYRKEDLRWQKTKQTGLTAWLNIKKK
The assay is described as above. The note with it: modified nucleotide replaces dTTP at 100%; 72° C., 30 min. It is filed as biochemical. As for the experimental part:
as §1, §2, §3, §4, §5

With pseudouridine-5′-triphosphate, the “distribution of each modified base in the final hairpin” value on MANTA polymerase [1] is “equal distribution”. The “KD (concentration of the modified dUTP required to produce 50% of fill in reaction) compared with dTTP” value at MANTA polymerase [2] was “almost twice the KD of dTTP”.

Turning to `O=c1[nH]c(=O)n([C@H]2C[C@H](O)[C@@H](COP(=O)(O)OP(=O)(O)OP(=O)(O)O)O2)cc1Cl` [CldU, 5-chloro-2′-deoxyuridine-5′-triphosphate], the “full length product in polymerisation reaction” value at Manta DNA polymerase and on DeepVent DNA polymerase was “full length products were obtained” each time.

For the compound `O=c1[nH]c(=O)n([C@H]2C[C@H](O)[C@@H](COP(=O)(O)OP(=O)(O)OP(=O)(O)O)O2)cc1F` [FdU, 5-fluoro-2′-deoxyuridine-5′-triphosphate], the “full length product in polymerisation reaction” value at Manta DNA polymerase and on DeepVent DNA polymerase was “full length products were obtained” each time.
